Source: patent publication US8017135B1, “Lipid-drug conjugates for local therapy of eye diseases” (The Regents of the University of California, priority 2003, dated 2011)
Several values for one entry are separate records, joined by “and”; a condition that tells them apart may be missing. Identical values can stand only once. Entries after “also recorded” stand apart in the source; their conditions may differ.

Assays:
HSV-1 [1] = conditions: single intravitreal injection; cited from earlier work
[2] = HDP-P-Ara G intravitreal toxicity
laser induced rat CNV = test: Prophylactic treatment of laser induced rat CNV (fluorescein angiograph); type: in vivo
Description: The retina was normal elsewhere.
Ara-G has been used as an antiproliferative agent to treat human leukemia and lymphoma.^11,12 Ara-G can cause apoptosis of fast growing cells by incorporating into the cell's DNA to inhibit the proliferation.^13 Normal cells in the retina are differentiated cell populations and are not sensitive to Ara-G. In contrast, abnormal proliferating cells in proliferative vitreoretinopathy experience vigorous DNA synthesis and are sensitive to Ara-G. The lipid prodrug of Ara-G was chosen to be useful to treat proliferative vitreoretinopathy or other intraocular proliferating disorders. […] No intraocular drug toxicity was observed except for the local retina contact induced retinal toxicity from the high dose injections. It was hypothesized that the local retinal toxicity could be eliminated by using small crystalline particles, especially when used in a human eye with a much larger vitreous volume than rabbit (4 ml in human eye versus 1.4 ml in rabbit eye). To quickly gather the therapeutic data of this new compound on proliferation, 3 μg of HDP-P-Ara G (equivalent to 75 μg in the rabbit eye [(25+125)/2]) was injected into the right eye of each rat 3 days before induction of CNV by laser. The drug led to a 39% reduction of leaking laser burns in this CNV rat model (39% versus 66%, p=0.009). […] HDP-P-Ara G could be useful for prevention or treatment of the devastating sight-threatening eye disease, age related macular degeneration.

[3] = previously determined; cited from earlier work
[4] = literature comparison; cited from earlier work
HSV-1 [5] = test: HSV-1 rabbit retinitis treatment study; type: in vivo; conditions: intravitreal drug after induction of retinitis; for thickness of the retina (histology): 5% dextrose eyes 46 μm, P<0.05
Description: (§1) For the pharmacokinetic studies, the highest non toxic dose from the results of the toxicity studies, 100 μg/eye, was intravitreally injected into 24 eyes of 16 rabbits, and the remaining 8 eyes were injected with the same volume of 5% dextrose as control. Two animals, 3 eyes with drug and 1 eye with 5% dextrose, were used at each time point. The time points used were post-injections on day 1, day 3, week 1, week 2, week 3, week 5, week 8, and week 10. After animal sacrifice, globes were enucleated and kept on ice before freezing and dissecting. The globes were then submerged in −40 C.° 2-methylbutane in a beaker sitting in a dry ice ethanol bath for 30 seconds. The frozen globe was cut into two halves through the optic nerve and further dissected under a surgical microscope to separate the vitreous and retina. These different tissues from the same eyes were separately stored in the pre-weighed and pre-labeled glass vials. The vials were kept in −70 C for HPLC analysis. 3. HSV-1 rabbit retinitis treatment study of HDP-cCDV: For the retinitis intervention study, 72 rabbits were used, including 14 rabbits for the treatment study and 58 for the pretreatment study. Only the right eye of each rabbit was used. Ophthalmoscopic retinitis grading was performed using a previously reported method with a standardized grading scheme.^7 For the treatment study, the right eyes of 14 rabbits were intravitreally injected with 0.06 mL of a 5×10^−5 dilution of 10^−7.6 mean tissue culture infective dose (TCID 50)/mL HSV-1. When retinitis developed and reached grade 1 (earliest detected retinitis grade: 1 or 2), 5 infected eyes received 100 micrograms of HDP-cCDV in 0.1 mL 5% dextrose, 4 infected eyes received an equivalent dose of free CDV, and the other 5 infected eyes received 5% dextrose. For the pretreatment study, 100 μg/eye was tested. 58 rabbits were divided into four groups: the 21 day, 42 day, 68 day, and 98 day groups. 15 rabbits were used for each time point of the pretreatment study (except 13 rabbits were used for the 98 day time point). At each time point 5 rabbits received 100 micrograms (in 0.1 ml 5% dextrose) of HDP-cCDV, 5 rabbits received an equivalent dose of CDV, and 5 rabbits received 5% dextrose (for the 98 day pre-treatment only 3 rabbits were used for HDP-cCDV). The HSV-1 virus dose, injection method, and clinical retinitis grading were done as previously described.^2,7 Rabbits were killed 2 weeks after development of retinitis. Retinitis was graded on day 3, 5, 7, 9, 11, 14. Rabbits without retinitis 3 or 4 weeks after HSV-1 inoculation were sacrificed.
4. Histologic evaluation of retinal damage and choroidal inflammation for the rabbit eyes in the treatment group. […] Thickness was measured with a reticule installed in the eyepiece of the microscope. […]

HSV-1 [6] = test: HSV-1 rabbit retinitis pretreatment study; type: in vivo; conditions: for rabbits that developed retinitis: 3-week pretreatment, 100 μg/eye or equivalent dose
Description: as §1
For the 3-week pretreatment study, all five rabbits that received intravitreal injection of 5% dextrose developed typical retinitis. In contrast, none of the rabbits that received the intravitreal injection of HDP-cCDV or CDV developed retinitis (Table 1). For the 47-day pretreatment, at day 7 after virus inoculation all control eyes developed retinitis with a median grade of 4. […] In contrast, out of 5 rabbits that received HDP-cCDV pretreatment, only 2 developed grade 2 retinitis. There is a significant difference in retinitis scores between HDP-cCDV pretreated eyes and CDV pretreated eyes or control eyes (p<0.05, Nonparametric Tukey-type tests). […] The other two groups (10 eyes) with dextrose or CDV pretreatment all had grade 4 retinitis. The difference in retinitis scores among the three groups was very significant (P=0.0046, Kruskal-Wallis Tests) (Table 1). For the 100-day pretreatment study, one of four rabbits in the HDP-cCDV pretreated group died before virus inoculation. […] The HDP-cCDV pretreated group had lower retinitis scores than the retinitis scores in the dextrose pretreated group (P<0.05, Nonparametric Tukey-type tests).

[7] = Intravitreal toxicity of HDP-cCDV; type: in vivo, rabbit
Description: All procedures were adherent to the ARVO Statement for the Use of Animals in Ophthalmic and Vision Research Intravitreal pharmacokinetics of small particle formulation of HDP-P-GCV: Three rabbits received 8.85 μmoles of the drug in their right eyes and 2.8 μmoles in the left eye. 2.8 μmole was previously determined to be non toxic.^2 Vitreous sampling was performed on both eyes of each rabbit at post injection week 1, week 2, week 3, week 5, week 8, week 12, and week 15. 50 to 100 μl of vitreous fluid was aspirated and placed in a pre-weighed vial for HPLC analysis of HDP-P-GCV levels as described before. 2. Intravitreal toxicity and pharmacokinetics of HDP-cCDV: For toxicity studies, five doses (10 μg or 0.018 μmole, 55 μg or 0.1 μmole, 100 μg or 0.18 μmole, 550 μg or 1.01 μmole, 1000 μg or 1.84 μmole in 50 μl of 5% dextrose) were tested in 8 rabbits, 16 eyes for 8 weeks. One eye of each animal was injected with drug and the fellow eye was injected with 5% dextrose as the control. Before drug injection, baseline IOP and fundus examination were documented. Drug or 5% dextrose was intravitreally injected into vitreous cavity as previously described.^2 After injection, eyes were monitored with a hand held tonometer (Tonopen, Medtronic, Jacksonville, Fla.), slit-lamp, and indirect ophthalmoscope at day 3, week 1, week 2, week 3, week 5, and week 8. […]

[8] = Laser light scattering particle size analysis; type: physicochemical; conditions: dry powder, laser diffraction
Description: Unmodified HDP-P-GCV and microfluidized HDP-P-GCV were subjected to laser light scattering particle size analysis at Cirrus Pharmaceuticals, Inc., Durham, N.C. Measurements were performed using a HELOS laser diffraction instrument (Sympatec, Lawrenceville, N.J.), equipped with a R3 lens (0.5 to 175 microns).
For each measurement, approximately 100 mg of dry sample was dispersed at a feed rate of 75% using the VIBRI and RODOS attachments set at a main pressure of 4.0 bar and aventury pressure of 100 mbar. The triggering conditions were set to start measurement when channel 25 e 1% and stop when channel 25 d 0.5%. Data were analyzed using the Fraunhoffer method by mean of the WINDOX 3.2 release 4 software. HDP-cCDV: cCDV was prepared from CDV as described previously^3 except that the compound was isolated as the dicyclohexyl-morpholinocarboxamidine salt. The scheme of the synthesis is illustrated in FIG. 1. The purity (greater than 98%) of these compounds used in this study was confirmed by thin layer chromatography, nuclear magnetic resonance spectroscopy, and mass spectroscopy as reported previously.^4,5
An aqueous slurry of HDP-P-GCV was subjected to five consecutive cycles of microfluidization. […] Finally, an untreated formulation of HDP-cCDV powder (Panel C) was also analyzed.

[9] = rabbit, in vivo, 100 ug
Description: For the pharmacokinetic studies, the highest non toxic dose from the results of the toxicity studies, 100 μg/eye, was intravitreally injected into 24 eyes of 16 rabbits, and the remaining 8 eyes were injected with the same volume of 5% dextrose as control. Two animals, 3 eyes with drug and 1 eye with 5% dextrose, were used at each time point. The time points used were post-injections on day 1, day 3, week 1, week 2, week 3, week 5, week 8, and week 10. After animal sacrifice, globes were enucleated and kept on ice before freezing and dissecting. The globes were then submerged in −40 C.° 2-methylbutane in a beaker sitting in a dry ice ethanol bath for 30 seconds. The frozen globe was cut into two halves through the optic nerve and further dissected under a surgical microscope to separate the vitreous and retina. These different tissues from the same eyes were separately stored in the pre-weighed and pre-labeled glass vials. The vials were kept in −70 C for HPLC analysis. 3. […] When retinitis developed and reached grade 1 (earliest detected retinitis grade: 1 or 2), 5 infected eyes received 100 micrograms of HDP-cCDV in 0.1 mL 5% dextrose, 4 infected eyes received an equivalent dose of free CDV, and the other 5 infected eyes received 5% dextrose. […]

[10] = 47-day pretreatment, day 7 after virus inoculation
[11] = 68-day pretreatment, day 14 following virus inoculation

Nc1nc(O)c2ncn(COC(CO)CO)c2n1 [GCV, ganciclovir, reference compound]
duration of prevention of HSV-1 viral infection of retina (HSV-1 [1]): less than one-week protection

CCCCCCCCCCCCCCCCOCCCOP(=O)(O)OCC1OC(n2cnc3c(=O)[nH]c(N)nc32)C(O)C1O (stereo not shown) [HDP-P-Ara G, 1-O-hexadecyloxypropyl-phospho-arabinofuranosylguanosine]
pathology study ([2]; 25 μg intravitreal injections): no toxicity
pathology study ([2]; 125 μg intravitreal injections): localized retinal structural disturbance and proliferation or hypertrophy of retinal pigment epithelium
ERGs ([2]; all eyes including the ones with local retinal toxicity): normal
clinical toxicity observation ([2]; high dose (125 μg/eye), where drug depot touched the retina): local retinal toxicity that presented as a local retinal disturbance of fundus pigmentation; also recorded: local retinal depigmentation area
time drug depot was observable ([2]; low dose (25 μg/eye)): 2 weeks
retinal toxicity in the rat eyes (laser induced rat CNV; 3 μg intravitreal): did not cause any retinal toxicity
reduction of CNV formation (leaking laser burns) (laser induced rat CNV; 3 μg intravitreal 3 days before laser, versus control eyes): 39%
burns actively leaking in treated eyes (laser induced rat CNV; 3 μg intravitreal 3 days before laser, control eyes 66%, p=0.009): 40% and 39%

CCCCCCCCCCCCCCCCOCCCOP(=O)(O)OCC(CO)OCn1cnc2c(=O)[nH]c(N)nc21 (stereo not shown) [HDP-P-GCV, Hexadecylpropanediol-3-phospho-ganciclovir]
duration of prevention of HSV-1 viral infection of retina (HSV-1 [1]): 20 weeks
non toxic intravitreal dose [3]: 2.8 µmol

Nc1ccn(C[C@H]2COP(=O)(O)CO2)c(=O)n1 [cCDV, cyclic cidofovir]
vitreous half-life [4]: 10 h

Nc1ccn(C[C@@H](CO)OCP(=O)(O)O)c(=O)n1 [CDV, cidofovir, reference compound]
vitreous half-life [4]: 20 h
vitreous cloudiness (HSV-1 [5]): noticeably less severe than the control eyes
thickness of the retina (histology) (HSV-1 [5]): 95 μm
rabbits that developed retinitis (HSV-1 [6]): none
median retinitis grade (HSV-1 [6]; [10]): 3
rabbits that developed retinitis (out of 5) (HSV-1 [6]; [10]): all developed retinitis
retinitis grade (HSV-1 [6]; [11]): 4

CCCCCCCCCCCCCCCCOCCCOP1(=O)COC(Cn2ccc(N)nc2=O)CO1 (stereo not shown) [HDP-cCDV, 1-O-hexadecyloxypropyl-cyclic-cidofovir]
toxicity findings ([7]; 550 μg/eye and 1000 μg doses, one eye each): local cataract and mild iritis in two eyes
highest non-toxic dose ([7]; intravitreal injection, 8 weeks observation): 100 μg/eye
volume median diameter (×50) [8]: 8.9 microns
estimated vitreous half-life [9]: 151 h
vitreous cloudiness (HSV-1 [5]): noticeably less severe than the control eyes
thickness of the retina (histology) (HSV-1 [5]): 80 μm
rabbits that developed retinitis (HSV-1 [6]): none
rabbits that developed retinitis (out of 5) (HSV-1 [6]; [10]): 2
retinitis grade of the rabbits that developed retinitis (HSV-1 [6]; [10]): 2
retinitis outcome (HSV-1 [6]; [11]): only two rabbits developed grade 3 and grade 4 retinitis, the other three rabbits had complete protection
retinitis outcome (HSV-1 [6]; 100-day pretreatment, three rabbits, day 9): one did not develop retinitis, and the other two had grade 3 retinitis
duration of pharmacologic effect against HSV-1 infection of the rabbit retina (HSV-1 [6]; single intravitreal pretreatment 100 μg/eye): at least 100 days
